Test results as given in ChEMBL document CHEMBL1932968, “Cyclic amino acid linkers stabilizing key loops of brain derived neurotrophic factor” (Bioorg Med Chem Lett, 2012).
Calls of active or inactive are those of the source. The rule behind the calls is not given here. *1 amine or outer side, *2 acyl side, *3 side chain or, on linkers, in order; H or OH if unused. Where a SMILES comes first, the peptide text is derived from it. [ ]: non-standard residue; d: D form. ACHC(1S,2S) = O=C([C@H]1CCCC[C@@H]1N[*:1])[*:2]; X2 = C[C@@]1(C(=O)[*:2])CCN1[*:1]; X1 = C[C@]1(C(=O)[*:2])CCN1[*:1]; Aze = O=C(O)[C@@H]1CCN1; βAla = NCCC(=O)O

Key:
[1] = target: BDNF/NT-3 growth factors receptor (Rattus norvegicus) (UniProt Q63604); assay: Agonist activity at TrkB in E18 Sprague-Dawley rat hippocampal neurons assessed as induction of TrkB autophosphorylation at Tyr490 at 100 uM after 1 hr by Western blotting analysis; assay type: functional, tissue-based; conditions: Hippocampus
Sequence of BDNF/NT-3 growth factors receptor (Rattus norvegicus) (Q63604 whole entry): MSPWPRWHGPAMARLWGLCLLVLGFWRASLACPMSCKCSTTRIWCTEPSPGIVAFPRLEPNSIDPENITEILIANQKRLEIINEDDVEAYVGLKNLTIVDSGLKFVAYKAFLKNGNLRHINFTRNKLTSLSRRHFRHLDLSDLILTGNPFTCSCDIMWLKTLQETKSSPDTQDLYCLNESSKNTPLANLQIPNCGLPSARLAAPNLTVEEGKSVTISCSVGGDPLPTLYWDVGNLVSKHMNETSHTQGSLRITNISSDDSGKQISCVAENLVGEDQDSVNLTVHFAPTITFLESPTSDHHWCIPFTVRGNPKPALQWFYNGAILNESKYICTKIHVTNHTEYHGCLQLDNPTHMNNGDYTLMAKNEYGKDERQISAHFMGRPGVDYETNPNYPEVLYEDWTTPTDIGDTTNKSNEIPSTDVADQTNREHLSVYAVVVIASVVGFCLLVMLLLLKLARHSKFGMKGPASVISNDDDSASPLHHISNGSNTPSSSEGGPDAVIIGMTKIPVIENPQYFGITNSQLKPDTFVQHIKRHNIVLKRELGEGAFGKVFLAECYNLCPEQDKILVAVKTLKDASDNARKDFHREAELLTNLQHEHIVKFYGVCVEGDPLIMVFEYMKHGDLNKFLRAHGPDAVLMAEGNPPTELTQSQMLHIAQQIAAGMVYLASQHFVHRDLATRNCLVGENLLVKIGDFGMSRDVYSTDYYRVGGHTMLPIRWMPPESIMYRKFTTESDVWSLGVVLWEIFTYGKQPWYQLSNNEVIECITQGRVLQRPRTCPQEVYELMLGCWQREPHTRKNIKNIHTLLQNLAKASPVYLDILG

[2] = target: BDNF/NT-3 growth factors receptor (Rattus norvegicus) (UniProt Q63604); assay: Antagonist activity at TrkB in E18 Sprague-Dawley rat hippocampal neurons assessed as inhibition of BDNF-induced TrkB phosphorylation at Tyr490 at 100 uM preincubated for 1 hr followed by BDNF induction for 10 mins by Western blotting analysis; assay type: functional, tissue-based; conditions: Hippocampus

SMILES | Activity [1] | inhibition [2]
N=C(N)NCCC[C@@H]1NC(=O)[C@H](CCCCN)NC(=O)[C@H](CCCCN)NC(=O)[C@H](CO)NC(=O)[C@H](CC(=O)O)NC(=O)[C@H]2CCCC[C@@H]2NC1=O (cyclo(DSKKR[ACHC(1S,2S)])) | inactive | Active
CC(C)[C@@H]1NC(=O)[C@H]2CCCC[C@@H]2NC(=O)CCNC(=O)[C@H](CCCCN)NC(=O)[C@H](CO)NC(=O)[C@H](C(C)C)NC(=O)[C@H]2CCCC[C@@H]2NC(=O)CCNC(=O)[C@H](CCCCN)NC(=O)[C@H](CO)NC1=O (cyclo(K[βAla][ACHC(1S,2S)]VSK[βAla][ACHC(1S,2S)]VS)) | inactive | 
CC(C)[C@@H]1NC(=O)[C@H]2CCCC[C@@H]2NC(=O)CNC(=O)[C@H](CCCCN)NC(=O)[C@H](CO)NC1=O (cyclo(G[ACHC(1S,2S)]VSK)) | inactive | inactive
CC(C)[C@@H]1NC(=O)[C@@H]2CCN2C(=O)CCNC(=O)[C@H](CCCCN)NC(=O)[C@H](CO)NC1=O (cyclo([Aze]VSK[βAla])) | inactive | inactive
CC(C)[C@@H]1NC(=O)C2(C)CCN2C(=O)CNC(=O)[C@H](CCCCN)NC(=O)[C@H](CO)NC1=O (mixture of isomers) | inactive | inactive
CC(C)[C@@H]1NC(=O)[C@]2(C)CCN2C(=O)CNC(=O)[C@H](CCCCN)NC(=O)[C@H](CO)NC(=O)[C@H](C(C)C)NC(=O)[C@@]2(C)CCN2C(=O)CNC(=O)[C@H](CCCCN)NC(=O)[C@H](CO)NC1=O (cyclo(G[X1]VSKG[X2]VSK)) | inactive | Active
CC(C)[C@@H]1NC(=O)[C@]2(C)CCN2C(=O)CCNC(=O)[C@H](CCCCN)NC(=O)[C@H](CO)NC1=O | inactive | inactive
CC(C)[C@@H]1NC(=O)[C@H]2CCCC[C@@H]2NC(=O)CCNC(=O)[C@H](CCCCN)NC(=O)[C@H](CO)NC1=O | inactive | inactive
CC(C)[C@@H]1NC(=O)[C@@H]2CCN2C(=O)CNC(=O)[C@H](CCCCN)NC(=O)[C@H](CO)NC(=O)[C@H](C(C)C)NC(=O)[C@@H]2CCN2C(=O)CNC(=O)[C@H](CCCCN)NC(=O)[C@H](CO)NC1=O (cyclo([Aze]VSKG[Aze]VSKG)) | inactive | 
CC(C)[C@@H]1NC(=O)[C@@]2(C)CCN2C(=O)CCNC(=O)[C@H](CCCCN)NC(=O)[C@H](CO)NC1=O | inactive | inactive
N=C(N)NCCC[C@@H]1NC(=O)[C@H]2CCCC[C@@H]2NC(=O)[C@H](CC(=O)O)NC(=O)[C@H](CO)NC(=O)[C@H](CCCCN)NC(=O)[C@H](CCCCN)NC(=O)[C@H](CCCNC(=N)N)NC(=O)[C@H]2CCCC[C@@H]2NC(=O)[C@H](CC(=O)O)NC(=O)[C@H](CO)NC(=O)[C@H](CCCCN)NC(=O)[C@H](CCCCN)NC1=O (cyclo(D[ACHC(1S,2S)]RKKSD[ACHC(1S,2S)]RKKS)) | inactive | Active
CC(C)[C@@H]1NC(=O)[C@H]2CCCC[C@@H]2NC(=O)CNC(=O)[C@H](CCCCN)NC(=O)[C@H](CO)NC(=O)[C@H](C(C)C)NC(=O)[C@H]2CCCC[C@@H]2NC(=O)CNC(=O)[C@H](CCCCN)NC(=O)[C@H](CO)NC1=O (cyclo(G[ACHC(1S,2S)]VSKG[ACHC(1S,2S)]VSK)) | inactive | 
CC(C)[C@@H]1NC(=O)[C@@H]2CCN2C(=O)CNC(=O)[C@H](CCCCN)NC(=O)[C@H](CO)NC1=O (cyclo([Aze]VSKG)) | inactive | inactive
